Test results as given in patent publication US10508077B2 (FORMA Therapeutics, Inc., priority 2015, dated 2019).

What was measured:
[1] = target: T1, Recombinant N-terminal GST tag full-length human HDAC8 (Homo sapiens, UniProt Q9BY41); experiment: HDAC8 probe binding assay, time resolved fluorescence (TRF); conditions: fluorescein labeled pan-HDAC inhibitor probe, 16 hours incubation, compounds listed under IC50 range headings
T1 construct: Recombinant N-terminal GST tag full-length human HDAC8; purchased SignalChem H90-30G-1000; host or cells: Sf9 insect cells (baculovirus)
T1 sequence (Q9BY41 1-377): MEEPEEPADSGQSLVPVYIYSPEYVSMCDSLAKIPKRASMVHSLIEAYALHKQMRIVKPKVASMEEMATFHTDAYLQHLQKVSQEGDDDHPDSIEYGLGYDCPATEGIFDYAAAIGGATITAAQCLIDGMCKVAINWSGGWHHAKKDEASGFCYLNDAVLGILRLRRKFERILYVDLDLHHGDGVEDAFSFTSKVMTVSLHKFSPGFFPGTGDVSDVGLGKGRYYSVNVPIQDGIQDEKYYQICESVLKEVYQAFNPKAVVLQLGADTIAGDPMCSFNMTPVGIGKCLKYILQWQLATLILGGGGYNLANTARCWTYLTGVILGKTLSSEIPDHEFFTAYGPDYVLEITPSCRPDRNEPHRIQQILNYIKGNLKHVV
Procedure: The HDAC8 probe binding assay was performed using a time resolved fluorescence (TRF) assay format. Recombinant N-terminal GST tag full-length human HDAC8 was expressed and purified from baculovirus in Sf9 insect cells (SignalChem, #H90-30G-1000), Each assay was performed in 1536 black well microplates (Corning, #3936) in a final volume of 4 μL in assay buffer containing 50 mM HEPES (pH 7.5), 50 mM KCl, 50 mM NaCl, 0.5 mM GSH (L-Glutathione reduced, Sigma #G4251), 0.03% BGG (0.22 μM filtered, Sigma, #G7516-25G), and 0.01% Triton X-100 (Sigma, #T9284-10L). 20 nL of 10-point, 3-fold serial dilution in DMSO was pre-dispensed into respective wells of 1536 assay plates for a final test concentration range of 25 μM to 1.3 nM respectively. The final concentration in the assay of HDAC8 and probe (a fluorescein labeled pan-HDAC inhibitor) was 2.5 nM and 1.5 nM respectively. 2 μL of 2× probe and 2× anti-GST Terbium (Cisbio, #61GSTXLB) was added to assay plates followed by 2 μL of 2× HDAC8. Plates were incubated for 16 hours at room temperature before time resolved fluorescence was read on the Envision (Excitation at 340 nm, and Emission at 485 nm and 535 nm, Perkin Elmer).
Data from HDAC8 Assays were reported as percent inhibition (inh) compared with control wells based on the following equation: % inh=1−((FLU−AveLow)/(AveHigh−AveLow)) where FLU=measured time resolved fluorescence. AveLow=average time resolved fluorescence of no enzyme control (n=32). AveHigh=average time resolved fluorescence of DMSO control (n=32). IC50 values were determined by curve fitting of the standard 4 parameter logistic fitting algorithm included in the Activity Base software package: IDBS XE Designer Model205. Data is fitted using the Levenburg Marquardt algorithm.

[2] = target: T2, Full length human recombinant HDAC8 protein (Homo sapiens, UniProt Q9BY41); experiment: In vitro histone deacetylase assay: enzymatic HDAC8 assay, electrophoretic mobility shift; type: biochemical; conditions: substrate RHKK(Ac)-NH2, 1 nM enzyme, compounds listed under IC50 range headings
T2 construct: Full length human recombinant HDAC8 protein was expressed in baculoviral system; made in house
T2 sequence (Q9BY41 1-377): T1 sequence (Q9BY41 1-377)
Procedure, shortened: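 Readout was microfluidic mobility-shift separation of deacetylated product from fluorescent RHKK(Ac)-NH2 substrate (2 µM), after reaction with 1 nM recombinant full-length human HDAC8 at 25 °C, pH 7.5, stopped with SDS. Twelve 3-fold-spaced concentrations tested; product/sum ratios normalized to controls and fitted with a 4-parameter model for IC50.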

O=C(/C=C/c1ccccc1N1CC[C@H](c2ccccc2)C1=O)NO (single isomer, unassigned) [Example I-327]
IC50 [1]: ≤ 1000 nM
IC50 [2]: < 1000 nM

O=C(/C=C/c1ccccc1N1CC[C@@H](c2ccccc2)C1=O)NO (single isomer, unassigned) [Example I-328]
IC50 [1]: ≤ 1000 nM
IC50 [2]: < 1000 nM

O=C(/C=C/c1ccccc1NCc1ccccc1)NO [Example I-40]
IC50 [1]: ≤ 1000 nM
IC50 [2]: < 1000 nM

O=C(/C=C/c1ccccc1NC(=O)c1cccc(C(F)(F)F)c1)NO [Example I-41, (E)-N-(2-(3-(hydroxyamino)-3-oxoprop-1-en-1-yl)phenyl)-3-(trifluoromethyl)benazmide]
IC50 [1]: ≤ 1000 nM
IC50 [2]: < 1000 nM

CC(=O)Nc1cccc(CNc2ccccc2/C=C/C(=O)NO)c1 [Example I-43, (E)-3-(2-((3-acetamidobenzyl)amino)phenyl)-N-hydroxyacrylamide]
IC50 [1]: 1000 to 100000 nM
IC50 [2]: < 1000 nM

N#Cc1cccc(C(=O)Nc2ccccc2/C=C/C(=O)NO)c1 [Example I-44, (E)-3-cyano-N-(2-(3-(hydroxyamino)-3-oxoprop-1-en-1-yl)phenyl)benzamide]
IC50 [1]: ≤ 1000 nM
IC50 [2]: < 1000 nM

N#Cc1cccc(CNc2ccccc2/C=C/C(=O)NO)c1 [Example I-45, (E)-3-(2-((3-cyanobenzyl)amino)phenyl)-N-hydroxyacrylamide]
IC50 [1]: 1000 to 100000 nM
IC50 [2]: < 1000 nM

O=C(/C=C/c1ccccc1NCc1cccc(CCCO)c1)NO [Example I-48, (E)-N-hydroxy-3-(2-((3-(3-hydroxypropyl)benzyl)amino)phenyl)acrylamide]
IC50 [1]: 1000 to 100000 nM
IC50 [2]: < 1000 nM

O=C(/C=C/c1ccccc1NC(=O)c1cccc(CCCO)c1)NO [Example I-49, (E)-N-(2-(3-(hydroxyamino)-3-oxoprop-1-en-1-yl)phenyl)-3-(3-hydroxypropyl)benzamide]
IC50 [1]: ≤ 1000 nM
IC50 [2]: < 1000 nM

CN(C(=O)c1cccc(C(F)(F)F)c1)c1ccccc1/C=C/C(=O)NO [Example I-54, (E)-N-(2-(3-(hydroxyamino)-3-oxoprop-1-en-1-yl)phenyl)-N-methyl-3-(trifluoromethyl)benzamide]
IC50 [1]: ≤ 1000 nM
IC50 [2]: < 1000 nM

O=C(/C=C/c1ccccc1NC(=O)c1ccc(C(F)(F)F)cc1)NO [Example I-61, (E)-N-(2-(3-(hydroxyamino)-3-oxoprop-1-en-1-yl)phenyl)-4-(trifluoromethyl)benzamide]
IC50 [1]: ≤ 1000 nM
IC50 [2]: < 1000 nM

O=C(/C=C/c1ccccc1NC(=O)c1ccc2[nH]ccc2c1)NO [Example I-62, (E)-N-(2-(3-(hydroxyamino)-3-oxoprop-1-en-1-yl)phenyl)-1H-indole-5-carboxamide]
IC50 [1]: ≤ 1000 nM
IC50 [2]: < 1000 nM

O=C(/C=C/c1ccccc1NC(=O)C1CCc2ccccc2C1)NO (stereo not shown) [Example I-65, (E)-N-(2-(3-(hydroxyamino)-3-oxoprop-1-en-1-yl)phenyl)-1,2,3,4-tetrahydronaphthalene-2-carboxamide]
IC50 [1]: ≤ 1000 nM
IC50 [2]: < 1000 nM

Cc1ccc(CC(=O)Nc2ccccc2/C=C/C(=O)NO)cc1 [Example I-66, (E)-N-hydroxy-3-(2-(2-(p-tolyl)acetamido)phenyl)acrylamide]
IC50 [1]: ≤ 1000 nM
IC50 [2]: < 1000 nM

CC(C)CCC(=O)Nc1ccccc1/C=C/C(=O)NO [Example I-67, (E)-N-(2-(3-(hydroxyamino)-3-oxoprop-1-en-1-yl)phenyl)-4-methylpentanamide]
IC50 [1]: ≤ 1000 nM
IC50 [2]: < 1000 nM

O=C(/C=C/c1ccccc1NC(=O)CC1CCCC1)NO [Example I-68, (E)-3-(2-(2-cyclopentylacetamido)phenyl)-N-hydroxyacrylamide]
IC50 [1]: ≤ 1000 nM
IC50 [2]: < 1000 nM

CC(C)C(=O)Nc1ccccc1/C=C/C(=O)NO [Example I-69, (E)-N-hydroxy-3-(2-isobutyramidophenyl)acrylamide]
IC50 [1]: ≤ 1000 nM
IC50 [2]: < 1000 nM

O=C(/C=C/c1ccccc1NC(=O)c1ccc(OC(F)F)cc1)NO [Example I-70, (E)-4-(difluoromethxoy)-N-(2-(3-(hydroxyamino)-3-oxoprop-1-en-1-yl)phenyl)benzamide]
IC50 [1]: ≤ 1000 nM
IC50 [2]: < 1000 nM

O=C(/C=C/c1ccccc1NC(=O)c1ccccc1Oc1ccccc1)NO [Example I-71, (E)-N-(2-(3-(hydroxyamino)-3-oxoprop-1-enyl)phenyl)-2-phenoxybenzamide]
IC50 [1]: ≤ 1000 nM
IC50 [2]: < 1000 nM

O=C(/C=C/c1ccccc1NC(=O)c1ccc(-n2cccn2)cc1)NO [Example I-72, (E)-N-(2-(3-(hydroxyamino)-3-oxoprop-1-en-1-yl)phenyl)-4-(1H-pyrazol-1-yl)benzamide]
IC50 [1]: ≤ 1000 nM
IC50 [2]: < 1000 nM

O=C(/C=C/c1ccccc1NC(=O)[C@H]1C[C@H]1c1ccccc1)NO [Example I-73, (1S,2R)-N-(2-((E)-3-(hydroxyamino)-3-oxoprop-1-en-1-yl)phenyl)-2-phenylcyclopropane-1-carboxamide]
IC50 [1]: ≤ 1000 nM
IC50 [2]: < 1000 nM

O=C(/C=C/c1ccccc1NC(=O)c1csc(-c2cccnc2)n1)NO [Example I-75, (E)-N-(2-(3-(hydroxyamino)-3-oxoprop-1-en-1-yl)phenyl)-2-(pyridin-3-yl)thiazole-4-carboxamide]
IC50 [1]: ≤ 1000 nM
IC50 [2]: < 1000 nM

O=C(/C=C/c1ccccc1NC(=O)c1cnc(-c2cccnc2)s1)NO [Example I-76, (E)-N-(2-(3-(hydroxyamino)-3-oxoprop-1-en-1-yl)phenyl)-2-(pyridin-3-yl)thiazole-5-carboxamide]
IC50 [1]: ≤ 1000 nM
IC50 [2]: < 1000 nM

CC1(C(=O)N2CC3(CCCN3c3ccccc3/C=C/C(=O)NO)C2)CCCCC1 [Example I-568, (E)-N-hydroxy-3-(2-(2-(1-methylcyclohexane-1-carbonyl)-2,5-diazaspiro[3.4]octan-5-yl)phenyl)acrylamide]
IC50 [1]: ≤ 1000 nM

CC(C)(C)C(=O)N1CC2(CCCN2c2ccccc2/C=C/C(=O)NO)C1 [Example I-569]
IC50 [1]: ≤ 1000 nM

O=C(/C=C/c1cc(Cl)ccc1NC(=O)c1cccnc1Oc1ccccc1)NO [Example I-570, N-{4-chloro-2-[(1E)-2-(hydroxycarbamoyl)eth-1-en-1-yl]phenyl}-2-phenoxypyridine-3-carboxamide]
IC50 [1]: ≤ 1000 nM

O=C(/C=C/c1cc(Cl)ccc1NC(=O)c1cccnc1Oc1ccc(Cl)cc1)NO [Example I-572, N-{4-chloro-2-[(1E)-2-(hydroxycarbamoyl)eth-1-en-1-yl]phenyl}-2-(4-chlorophenoxy)pyridine-3-carboxamide]
IC50 [1]: ≤ 1000 nM

COc1ccc(Oc2ccccc2C(=O)Nc2ccc(Cl)cc2/C=C/C(=O)NO)cc1 [Example I-573, N-{4-chloro-2-[(1E)-2-(hydroxycarbamoyl)eth-1-en-1-yl]phenyl}-2-(4-methoxyphenoxy)benzamide]
IC50 [1]: ≤ 1000 nM

O=C(/C=C/c1ccccc1N1CCC2(CCCN2C(=O)c2ccc(F)cc2)C1)NO (stereo not shown) [Example I-575, (E)-3-(2-(1-(4-fluorobenzoyl)-1,7-diazaspiro[4.4]nonan-7-yl)phenyl)-N-hydroxyacrylamide]
IC50 [1]: ≤ 1000 nM

O=C(/C=C/c1ccccc1N1CCC2(CCCN2C(=O)CC(F)(F)F)C1)NO (stereo not shown) [Example I-576, (E)-N-hydroxy-3-(2-(1-(3,3,3-trifluoropropanoyl)-1,7-diazaspiro[4.4]nonan-7-yl)phenyl)acrylamide]
IC50 [1]: ≤ 1000 nM

O=C(/C=C/c1ccccc1N1CCC2(CCCN2C(=O)Cc2ccccc2)C1)NO (stereo not shown) [Example I-579, (E)-N-hydroxy-3-(2-(1-(2-phenylacetyl)-1,7-diazaspiro[4.4]nonan-7-yl)phenyl)acrylamide]
IC50 [1]: 1000 to 100000 nM

O=C(/C=C/c1ccccc1N1CCN(c2ccc(Cl)c(C(F)(F)F)c2)CC1=O)NO [Example I-582, (E)-3-(2-(4-(4-chloro-3-(trifluoromethyl)phenyl)-2-oxopiperazin-1-yl)phenyl)-N-hydroxyacrylamide]
IC50 [1]: 1000 to 100000 nM
